In patent EP3789378A1, “PIPERIDINES OR PIPERIDONES SUBSTITUTED WITH UREA AND HETEROARYL” (Grünenthal GmbH, priority 2019, dated 2021):

Target: T1, h FPR2 (Homo sapiens, UniProt P25090)
T1 construct: expressed in transfected cells
T1 sequence (P25090 1-351): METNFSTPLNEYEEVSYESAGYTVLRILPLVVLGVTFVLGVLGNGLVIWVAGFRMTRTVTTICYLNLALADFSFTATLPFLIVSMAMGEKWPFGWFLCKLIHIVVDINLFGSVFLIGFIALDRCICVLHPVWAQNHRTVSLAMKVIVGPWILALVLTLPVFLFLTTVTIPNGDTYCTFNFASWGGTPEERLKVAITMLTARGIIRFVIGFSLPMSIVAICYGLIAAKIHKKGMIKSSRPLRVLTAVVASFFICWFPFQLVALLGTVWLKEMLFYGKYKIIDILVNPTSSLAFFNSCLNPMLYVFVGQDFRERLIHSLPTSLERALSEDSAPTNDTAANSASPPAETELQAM
Assay: Agonistic activity in hFPR2-Aq-CHO cells (FLIPR Calcium 5 fluorescence assay)
Type: cell-based
Conditions: 11 point half log dilution, final assay concentration from 10µM
Outline: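 hFPR2-Aq-CHO cells were loaded with Calcium 5 dye for 30 min at 37 °C and equilibrated 10 min at room temperature. Compound (11 points, 10 µM to 100 pM final) was added in HBSS/HEPES/probenecid buffer pH 7.4. Fluorescence rise over basal across 5 min, relative to no-compound wells, gave EC50.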

| SMILES | EC50 [nM] |
| --- | --- |
| COc1ccc([C@@H]2CN(C(=O)C3CCN(C)CC3)CC[C@H]2NC(=O)Nc2ccc(Cl)cc2)nc1 (single isomer, unassigned) [Ex-187, trans-1-(4-chlorophenyl)-3-[3-(5-methoxypyridin-2-yl)-1-(1-methylpiperidine-4-carbonyl)piperidin-4-yl]urea] | 1.4 |
| COc1ccc([C@@H]2CN(C(=O)C3CCN(C)CC3)CC[C@H]2NC(=O)Nc2ccc(Cl)cc2)nc1 (single isomer, unassigned) [Ex-188, trans-1-(4-chlorophenyl)-3-[3-(5-methoxypyridin-2-yl)-1-(1-methylpiperidine-4-carbonyl)piperidin-4-yl]urea] | 29 |
| COc1ccc([C@@H]2CN(C(=O)CN(C)C)CC[C@H]2NC(=O)Nc2ccc(Cl)cc2)nc1 (single isomer, unassigned) [Ex-189, trans-1-(4-chlorophenyl)-3-[1-[2-(dimethylamino)acetyl]-3-(5-methoxypyridin-2-yl)piperidin-4-yl]urea] | 1.7 |
| COCCCN1CC[C@@H](NC(=O)Nc2ccc(Cl)cc2)[C@H](c2ccc(OC)cn2)C1 (single isomer, unassigned) [Ex-191, trans-1-(4-chlorophenyl)-3-[1-(3-methoxypropyl)-3-(5-methoxypyridin-2-yl)piperidin-4-yl]urea] | 0.7 |
| COCCCN1CC[C@@H](NC(=O)Nc2ccc(Cl)cc2)[C@H](c2ccc(OC)cn2)C1 (single isomer, unassigned) [Ex-192, trans-1-(4-chlorophenyl)-3-[1-(3-methoxypropyl)-3-(5-methoxypyridin-2-yl)piperidin-4-yl]urea] | 58 |
| COc1ccc([C@@H]2CN(CC3CC(OC)C3)CC[C@H]2NC(=O)Nc2ccc(Cl)cc2)nc1 (single isomer, unassigned) [Ex-195, trans-1-(4-chloro-phenyl)-3-[5-methoxy-1'-(3-methoxy-cyclobutylmethyl)-1',2',3',4',5',6'-hexahydro-[2,3']bipyridinyl-4'-yl]-urea] | 0.5 |
| COc1ccc([C@@H]2CN(CC3CC(OC)C3)CC[C@H]2NC(=O)Nc2ccc(Cl)cc2)nc1 (single isomer, unassigned) [Ex-202, trans-1-(4-chloro-phenyl)-3-[5-methoxy-1'-(3-methoxy-cyclobutylmethyl)-1',2',3',4',5',6'-hexahydro-[2,3']bipyridinyl-4'-yl]-urea] | 1.4 |
| COc1ccc([C@@H]2CN(CC3CC(O)C3)CC[C@H]2NC(=O)Nc2ccc(Cl)cc2)nc1 (single isomer, unassigned) [Ex-203, trans-1-(4-chloro-phenyl)-3-[1'-(3-hydroxy-cyclobutylmethyl)-5-methoxy-1',2',3',4',5',6'-hexahydro-[2,3']bipyridinyl-4'-yl]-urea] | 0.7 |
| COc1ccc([C@@H]2CN(CC3CC(O)C3)CC[C@H]2NC(=O)Nc2ccc(Cl)cc2)nc1 (single isomer, unassigned) [Ex-205, trans-1-(4-chloro-phenyl)-3-[1'-(3-hydroxy-cyclobutylmethyl)-5-methoxy-1',2',3',4',5',6'-hexahydro-[2,3']bipyridinyl-4'-yl]-urea] | 4 |
| COc1ccc([C@H]2CN(CC3(C(N)=O)CC3)CC[C@@H]2NC(=O)Nc2ccc(Cl)cc2)nc1 [Ex-143, trans-1-[[4-[[(4-Chlorophenyl)-carbamoyl]amino]-3-(5-methoxy-pyridin-2-yl)-piperidin-1-yl]-methyl]-cyclopropane-1-carboxyfic acid amide] | 0.12 |
| COc1ccc([C@H]2CN(CCO)CC[C@@H]2NC(=O)Nc2ccc(Cl)cc2)nc1 [Ex-206] | 2 |
| COc1ccc([C@H]2CN(CC(F)F)CC[C@@H]2NC(=O)Nc2cc(C)ns2)nc1 [Ex-214] | 0.8 |
| CNC(=O)CN1CC[C@H](NC(=O)Nc2ccc(Cl)cc2)[C@@H](c2ccc(OC)cn2)C1 [Ex-215] | 0.3 |
| COc1ccc([C@H]2CN(CC(=O)N(C)C)CC[C@@H]2NC(=O)Nc2ccc(Cl)cc2)nc1 [Ex-216] | 2 |
| COc1ccc([C@H]2CN(C(C)(C)C(N)=O)CC[C@@H]2NC(=O)Nc2ccc(Cl)cc2)nc1 [Ex-225] | 8 |
